The results in this text go back to patent publication US20240228491A1, “METHIONINE ADENOSYLTRANSFERASE INHIBITOR, PREPARATION METHOD THEREFOR AND APPLICATION THEREOF” (SCINNOHUB PHARMACEUTICAL CO., LTD., priority 2021, published 2024).

One data set concerns KP-4 cells. The data set can be described thus: Inhibitory activity test of KP-4 cells. It counts as cell-based. As to conditions: Homo sapiens, 144 h incubation, read-out: KP-4 cell inhibitory activity IC50. As for the experimental part:
On day 1, cell seeding: after digestion of the cells with trypsin, the cells were resuspended to 1*10^4/mL with RPMI1640 complete medium (HyClone Company, Cat. No. SH30809.01) supplemented with 10% FBS (Gibco, 10099141C), mixed evenly, and added into the 96-well plate at 100 μL/well. The plate was put back to the incubator for the adherent growth of cells. On day 2, the addition of the compounds to be tested: 100 μL of the complete medium containing the compounds (the concentration of the compound in the medium was formulated as follows: 3-fold gradient dilution from 60 μM, 10 concentration gradients in total) was added, incubated for 144 hours at 37° C., 5% CO2. On day 8, the cell culture plates were taken out from incubator and equilibrated to room temperature, excess medium was pipetted from the wells so that 50 μL of supernatant was retained, and 50 μL of CellCounting-Lite 2.0 (Nanjing Vazyme Biotech Co., Ltd., Cat. No. DD1101) reagent was added per well, and the cells were fully lysed by shaking at room temperature for 10 min, and incubated for 5 min to detect the fluorescence intensity.
(§1) % Inhibition=100−(signal of the well with the compound to be tested−signal of the well with only medium and free of cells)/(signal of the well with cells but without addition of the compound−signal of the well with only medium and free of cells)×100.
The log value of concentration was used as the X-axis and % Inhibition was used as the Y-axis, so as to fit the dose-effect curve and calculate the IC50 value using nonlinear regression (dose response−variable slope) in the analysis software GraphPad Prism 8.

Data set [1] can be described thus: In vivo pharmacokinetic study in SD rats. The settings on record: SD rat, plasma; for AUC(0-t): read-out: Area under curve AUC(0-t); for half-life: read-out: Half life T1/2 (converted); for Cmax: read-out: Maximal concentration Cmax. As for the experimental part: Species: SD rat. Source: Charles River Laboratory Animal Technology Co., Ltd. Number: 3 rats per dosage group.
1.1 An appropriate amount of the test sample was accurately weighed, into which 5% DMSO, 10% polyethylene glycol-15 hydroxystearate, 85% normal saline (all in volume percent) were added sequentially, and were fully mixed via vortex or ultrasound, to obtain the dosing solution with a test sample concentration of 0.2 mg/mL for intravenous administration.
1.2 An appropriate amount of the test sample was accurately weighed, into which 5% DMSO, 10% polyethylene glycol-15 hydroxystearate, 85% normal saline (all in volume percent) were added sequentially, and were fully mixed via vortex or ultrasound, to obtain the dosing solution with a test sample concentration of 0.5 mg/mL for oral gavage administration.
Weighing was performed before administration, and the administration amount was calculated according to the body weight. The drug was administered orally by gavage or intravenously.
On the day of the test, 100 μL of blood was collected via the jugular sinus at each set time point, and the whole blood samples were placed in anticoagulation tubes containing EDTA-K2. Whole blood samples were centrifuged at 1500 g for 10 min to separate the plasma, and the upper plasma samples were collected into sample tubes. Biological samples were stored at −40° C. to −20° C. for analysis.
According to the requirements of SOP-BA-002 (Liquid Mass Spectrometry for biological sample analysis) of Suzhou 3D BioOptima New Drug Development Co., Ltd., an LC-MS/MS analytical method was established to determine the concentrations of compounds in rat plasma, and used to determine the concentrations of compounds in the biological samples obtained in this experiment.
Pharmacokinetic parameters were calculated using the non-compartment model of Pharsight Phoenix 8.0.

The next data set has as its system HCT116 MTAP-/- cells. The data set can be described thus: Activity test of HCT116 MTAP gene homozygous deletion cells (CellTiter-Glo). It counts as cell-based. The settings on record: Homo sapiens, HCT-116, 120 h incubation, read-out: HCT116 MTAP-/- Cell IC50. As to the method: On day 1, cell seeding: after digestion of the cells with trypsin, the cells were resuspended to the desired density with the complete medium (RPMI-1640 supplemented with 10% FBS; the brand of FBS is EXCELL, Cat. No. FND500; the brand of RPMI-1640 is ATCC, Cat. No. 30-2001), mixed evenly, and added into the 96-well plate at 100 μL/well with a cell density of 1000-3000 cells per well. The plate was put back to the incubator for the adherent growth of cells. On day 2, the addition of the compounds to be tested: before the addition of the compounds, the cells were starved with serum-free medium for 4 h, then the complete medium containing the corresponding concentration of compounds was added thereto, and the cells were incubated at 37° C., 5% CO2 for 120 h. On day 7, the cell culture plates were taken out from incubator and equilibrated to room temperature. 50 μL of CellTiter-Glo (Promega Company, Cat. No. G7571) reagent was added per well, and the cells were fully lysed by shaking at room temperature for 2 min, and then incubated for another 60 min to detect the fluorescence intensity. Calculation formula:
as §1
The fitting dose-effect curve of the analysis software GraphPad Prism 5 was used to give IC50 values of the individual compounds against cellular activity.

A further data set deals with MAT2a (Homo sapiens (Human), UniProt P31153). The data set can be described thus: MAT2a enzymatic activity test (colorimetric assay). It counts as biochemical. As to conditions: OD620, 150 min reaction, read-out: IC50 against MAT2a. In a few lines:
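MAT2a (20 μg/mL working solution) was preincubated 15 min with compound (10-point, 3-fold series from 1 or 10 μM) in Tris/KCl/MgCl2 buffer, pH 8.0. Reaction with 400 μM ATP and 600 μM L-methionine (substrate-mix concentrations) ran 150 min. Phosphate was detected by BIOMOL Green at OD620, with IC50 from log(inhibitor)-response fitting.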

Where two headings read alike, the source gives them in different places.

Sequence of MAT2a (P31153 whole entry): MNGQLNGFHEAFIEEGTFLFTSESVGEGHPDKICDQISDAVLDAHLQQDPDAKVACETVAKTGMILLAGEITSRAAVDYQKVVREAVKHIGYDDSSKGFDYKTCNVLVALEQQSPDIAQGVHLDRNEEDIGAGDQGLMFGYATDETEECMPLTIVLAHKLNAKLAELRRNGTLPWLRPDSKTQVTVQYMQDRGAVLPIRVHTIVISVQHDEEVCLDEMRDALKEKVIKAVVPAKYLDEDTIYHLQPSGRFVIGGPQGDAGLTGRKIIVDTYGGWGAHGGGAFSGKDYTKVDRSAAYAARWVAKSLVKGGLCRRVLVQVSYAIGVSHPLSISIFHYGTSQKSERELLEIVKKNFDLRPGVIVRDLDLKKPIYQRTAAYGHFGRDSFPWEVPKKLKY

Regarding `Nc1c(-c2ccc3nccnc3c2)c(=O)n(-c2ccc(Cl)cc2)c2nc(C(F)(F)F)ccc12` [Example 36], the IC50 with KP-4 cells turned out to be 360 nM. For the same compound, in data set [1] (IV 1 mg/kg), the “Apparent clearance rate Cl” value came out at 0.745 mL/min/kg, the AUC(0-t) came to 17600 ng·h/mL, the half-life was 5.8 h and the Cmax came to 2710 ng/mL. Moreover, in data set [1] (PO 5 mg/kg), the AUC(0-t) turned out to be 67100 ng·h/mL, the half-life is 9.14 h and the Cmax came to 4140 ng/mL. For the same compound, in data set [1] (PO 5 mg/kg vs IV 1 mg/kg, read-out: Bioavailability F %), the bioavailability was found to be 76.3%. In the data set with HCT116 MTAP-/- cells, the IC50 is 7.43 nM. Further, at MAT2a, the IC50 came to 13.6 nM.
